From US12145920B2, “Lanthionine c-like protein 2 ligands, cells prepared therewith, and therapies using same” (NImmune Biopharma, Inc., priority 2019, dated 2024)
Entries after “also recorded” stand apart in the source; their conditions may differ.

Key:
[1] = test system: resiquimod-treated C57BL6 mice; assay: TLR7/9 (resiquimod) induced mouse model of SLE; format: in vivo
Description: Resiquimod model. Resiquimod was prepared in a 1:3 ethanol:acetone mixture to provide 85 micrograms of resiquimod to each mouse. Resiquimod solution was well mixed and applied to the ear of C57BL6 mice three times weekly over a 2-week period. Mice were monitored for signs of disease daily.
Treatment administration. BT-63 was prepared within a 0.5% methylcellulose (12-15 cP) solution. Dosage used was 20 mg/kg delivered once daily. Mice were weighed on a weekly basis to update dosage formulation. Dosage was calculated based off mean body weights for each gender. Oral dosage was delivered by orogastric gavage of dosage in 0.2 mL volume.
Immunological analysis. Blood was collected by cardiac puncture into EDTA tube. Plasma was separated following centrifugation and assayed by ELISA for anti-dsDNA antibodies. Urine was collected for assay for albumin content to test for kidney function.
(§1) Spleens were excised, crushed and filtered to provide a cellular suspension. Red blood cells were lysed. Cells were labeled with mixtures of extracellular (CD45, CD3, CD4, CD8, CD19, NK1.1, CD25, F4/80, CD11b, Gr1, CX3CR1, CD64) and intracellular (Tbet, BCL6, FOXP3, IFNγ, IL6, IL10) antibodies in a sequential live staining in 96-well plates in preparation for flow cytometry. Data was captured on a BD FACS Celesta and analyzed using FacsDiva.

[2] = test system: LANCL2 deficient CD4+ T cells; assay: Immune effects in CD4+ splenocytes, flow cytometry (LANCL2 deficient); format: cell-based, C57BL/6 mice; settings: in the absence of LANCL2, 0.1, 1 and 10 μM
Excerpt: (§2) Cell culture. Spleens were excised from C57BL/6 mice and assessed in wild-type and LANCL2 deficient states. Spleens were crushed between the frosted ends of microscope slides and filtered to provide a cellular suspension. Red blood cells were lysed through hypotonic lysis. Remaining cells were washed and filtered. CD4+ T cells were enriched within the suspension using magnetic sorting based negative selection. Cells were collected and plated within 96 well plates coated with anti-CD3 and cultured in the presence of BT-63 at 0, 0.1, 1 and 10 micromolar or BT-104A, BT-104B, or BT-104C at 0.1 micromolar for 48 h. During the last 6 h of culture, cells were stimulated with phorbol 12-myristate-13-acetate (PMA) and ionomycin.
(§3) Immunological analysis. Cells were collected from 96 well plates and stained with a cocktail of antibodies for immunophenotyping by flow cytometry. Culture supernatant was collected and assayed for cytokine concentrations by cytometric bead array. Data was captured on a BD FACS Celesta and analyzed using FacsDiva.

CD4+ T cells = assay: Immune effects in CD4+ splenocytes, flow cytometry (wild type); format: cell-based, C57BL/6 mice
Excerpt: as §2, §3

[3] = test system: Non-obese diabetic (NOD) ShiLt mice; assay: NOD mouse model of T1D; format: in vivo
Description: NOD model. Non-obese diabetic (NOD) ShiLt mice were used in this study. NOD mice have numerous genetic mutations that enable the spontaneous onset of hyperglycemia and pancreatic pathologies associated with T1D. Mice entered into the experiment at 9 weeks of age and were monitored for a […]. Mice were treated daily with vehicle, 10 mg/kg BT-63, or 20 mg/kg BT-63 by oral gavage. Once weekly blood samples were collected from the tail vein to be tested for glucose concentration by glucometer. Mice were euthanized after 12 weeks for collection of blood and organs for immunological testing.
Treatment administration. BT-63 was prepared within a 0.5% methylcellulose (12-15 cP) solution. Dosage used was 10 or 20 mg/kg delivered once daily. Mice were weighed on a weekly basis to update dosage formulation. Dosage was calculated based off mean body weights for each gender. Oral dosage was delivered by orogastric gavage of dosage in 0.2 mL volume.
as §1, with “Immunological analysis. Blood was collected by cardiac puncture into heparinized tube. Plasma was separated following centrifugation and assayed by Luminex for cytokine and hormones related to the development of T1D. Spleens” for “Spleens”, “IL21,” for “IL6,”

NZB/W F1 mice = assay: NZB/W F1 genetic mouse model of SLE (BT-63); format: in vivo
Description: NZB/W F 1 model. Twenty-four-week-old, female NZB/W F1 mice were randomized into vehicle or BT-63-treated arms based on baseline urine protein levels (n=10). BT-63 was orally administered daily at 20 mg/kg for 12 weeks. Mice were weighed on a weekly basis to update dosage formulation. Dosage was calculated based off mean body weights.
Immunological analysis. Blood was collected by cardiac puncture into EDTA tube. Plasma was separated following centrifugation and assayed by ELISA for anti-dsDNA antibodies and IFN-α. Urine was collected to assay for protein content to test for kidney function. Spleens were excised, crushed and filtered to provide a cellular suspension. Red blood cells were lysed. Cells were labeled with mixtures of extracellular (CD45, CD3, CD4, CD8, CD19, CD138, CD25, MHCII, CD11b, CD11c, CXCR3, IgD, IgM) and intracellular (BCL6, FOXP3, IL21, IL6, IL10) antibodies in a sequential live staining in 96-well plates in preparation for flow cytometry. Data was captured on a BD FACS Celesta and analyzed using FacsDiva.

[4] = Pharmacokinetics after oral dosing in mice, plasma LC-MS/MS; format: in vivo, C57BL/6 mice; parameters: exposure: unit not given here
Description: C57BL/6 mice were dosed orally with 10 and 40 mg/kg of BT-63 by oral gavage of methylcellulose solution containing BT-63. After gavage, blood was collected at 0.5, 1, 2, 4, 6, 8, 12 and 24 hours after treatment. Plasma was collected from blood by centrifugation. BT-63 was extracted from plasma and quantified by LC-MS/MS.

[5] = 2 weeks of oral treatment, 20 mg/kg
[6] = wild-type cells, 0.1, 1 and 10 μM, 48 h
[7] = 21 weeks of age, oral 10 or 20 mg/kg
[8] = spleen, 21 weeks of age, oral 10 or 20 mg/kg
[9] = 36 weeks of age (12 weeks of treatment), 20 mg/kg
[10] = spleen, 12 weeks oral 20 mg/kg, relative to vehicle

## O=C(CN1CCN(C(=O)c2cccc(-c3nc4ccccc4[nH]3)n2)CC1)c1ccccc1 [BT-63, 2-(4-(6-(1H-benzo[d]imidazol-2-yl)picolinoyl)piperazin-1-yl)-1-phenylethanone]
[1]; [5]
  concentration of anti-dsDNA antibodies in plasma: reduces
  urine albumin content: reduction
[1]; spleen, 2 weeks, 20 mg/kg oral
  IFNγ+ CD8+ T cells: reduced
  IL6+ cells: reduced
[2]
  effects on IFNγ+, TNFa+ and IL10+ FOXP3+ CD4+ T cells: lost
CD4+ T cells; 0.1, 1 and 10 micromolar, FIG. 4A
  FOXP3+ CD4+ T cells: significant increase
CD4+ T cells; [6]
  proportions of IFNγ+ CD4+ T cells: reduced; also recorded: significant decrease
  proportions of IL10+ FOXP3+ CD4+ T cells: increased
  proportions of TNFa-producing CD4+ T cells: reduced
[3]; 20 mg/kg group compared to vehicle
  reduction of percentage of hyperglycemic mice: 50%
[3]; 21 weeks of age, 10 mg/kg
  HbA1c: reduced
[3]; 21 weeks of age, 20 mg/kg
  HbA1c: reduced
[3]; [7]
  plasma MCP-1: reduced
  plasma TNF: reduced
  plasma levels of C-peptide: increased
  plasma levels of insulin: increased
[3]; NOD mice, oral daily, from 19 weeks of age through end
  blood glucose levels: significantly lower
[3]; [8]
  CD4+IL10+ to CD4+IFNγ+ ratio: increased
  PD1+ CD4+ T cells: increasing
  T follicular helper (Tfh) cells (BCL6+IL21+): decreasing
NZB/W F1 mice; 12 weeks oral 20 mg/kg
  body weight change from baseline (weight loss): protected mice from weight loss
NZB/W F1 mice; 12 weeks oral 20 mg/kg, from baseline
  proteinuria score: prevented worsening
NZB/W F1 mice; [9]
  plasma IFN-α levels: reduced
  plasma anti-dsDNA levels: reduced
NZB/W F1 mice; spleen, 12 weeks oral 20 mg/kg
  CXCR3+ plasma cells: moderate reduction
  follicular B cells: moderate reduction
  plasma cells: moderate reduction
NZB/W F1 mice; [10]
  CD25+ FOXP3+ regulatory CD4+ T cells: greater reductions
  IL6+ myeloid cells: greater reductions
  IL21+ BCL6+ follicular helper T cells: greater reductions
[4]; equal oral doses (10 mg/kg)
  increase in maximum plasma concentration compared to BT-11: > 100 fold
[4]; oral 10 mg/kg
  area under the curve exposure: 1055 ng·h/mL
  maximum plasma concentration: 585 ng/mL
[4]; oral 40 mg/kg
  exposure: 11552
  maximum plasma concentration: 4465 ng/mL
